Reference: paper PMC10340532, “MCAK Inhibitors Induce Aneuploidy in Triple-Negative Breast Cancer Models” (Cancers, 2023)

Target: T1, MCAK (Homo sapiens, UniProt Q99661)
T1 construct: gene KIF2C
T1 sequence (Q99661 2-725): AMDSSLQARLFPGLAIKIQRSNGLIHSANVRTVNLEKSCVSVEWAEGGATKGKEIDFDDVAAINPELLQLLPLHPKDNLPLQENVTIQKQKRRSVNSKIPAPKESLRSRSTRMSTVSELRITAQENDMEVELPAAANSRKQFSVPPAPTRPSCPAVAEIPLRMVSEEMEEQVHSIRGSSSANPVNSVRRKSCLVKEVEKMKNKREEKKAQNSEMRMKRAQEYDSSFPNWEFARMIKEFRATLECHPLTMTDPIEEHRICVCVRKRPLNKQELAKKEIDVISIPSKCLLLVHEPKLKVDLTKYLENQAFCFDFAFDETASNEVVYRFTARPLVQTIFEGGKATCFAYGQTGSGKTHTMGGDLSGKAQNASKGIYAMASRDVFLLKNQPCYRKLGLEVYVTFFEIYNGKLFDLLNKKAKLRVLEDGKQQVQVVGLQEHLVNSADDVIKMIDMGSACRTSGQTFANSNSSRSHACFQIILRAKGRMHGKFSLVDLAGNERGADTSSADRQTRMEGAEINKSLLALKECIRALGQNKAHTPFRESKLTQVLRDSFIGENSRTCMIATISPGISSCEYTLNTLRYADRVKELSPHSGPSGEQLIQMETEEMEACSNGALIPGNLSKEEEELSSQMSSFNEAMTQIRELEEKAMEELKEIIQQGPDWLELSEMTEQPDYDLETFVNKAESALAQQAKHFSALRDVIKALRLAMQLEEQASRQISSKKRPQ
Assay: sedimentation-based microtubule depolymerization assay with purified FMCAK; FRET conformation screen, FCP counter screen
Format: biochemical

CC(C)c1noc(C2CCCN2C(=O)c2cc(=O)c3ccccc3o2)n1 (stereo not shown) [H9, 2042 H9]
sedimentation-based microtubule depolymerization assay with purified FMCAK; FRET: 5 µM
